# Tests used:
# [1] = molecular target: T1, bovine serum albumin (BSA) (Bos taurus, UniProt P02769); experiment: Protein precipitation capacity (PPC), turbidimetric well-plate reader assay with BSA, log-normal dose–response model; type: biochemical; conditions: SE in parentheses
# T1 construct: purchased Sigma-Aldrich (MO, USA)
# Method: (§1) PPC was measured by using the turbidimetric well-plate reader assay of Engström et al. (2019), with few modifications to the volumes of the reactants and to the number of replicates, for instance. The analyzes of the supernatants were done following Engström et al. (2022).[21] Briefly, 75 μL of BSA solution and 75 μL of the solutions of compounds 2–14 were pipetted to well plates, and the intensity of the forming haze was measured periodically at 420 nm using a well-plate reader. The PPC of the PC analogue 1 was not measured because it was not soluble in suitable solvents. The reactions were monitored for 30 min, and the highest intensities were recorded. A single background measurement was done at each concentration with all the components in the wells but the BSA. The reactions were done in triplicates (and in duplicates with PC C1), and the concentrations of the compounds 2–14 in the reaction mixtures were 0.25 0.65, 1.05, 1.45, 1.85, and 2.25 mM. The concentration of the BSA was kept constant at 0.1 mM. Therefore, the tested molar ratios to BSA were 2.5:1, 6.5:1, 10.5:1, 14.5:1, 18.5:1, and 22.5:1. After the 30 min, the supernatants and precipitates of the replicates were combined in a 1.5 mL Eppendorf tube and separated by centrifuging. The supernatants were then analyzed by UPLC–DAD using the shorter phenyl column (section 2.4) to quantify the leftover compounds 2–14 and BSA. Leftover BSA was quantified using a separately prepared linear calibration curve (1–125 μM), and the compounds 2–14 were quantified by analyzing the background solutions from the well-plate reader assay and constructing a calibration curve from these analyzes. BSA was quantified at 280 nm and compounds 2–14 at 280–320 nm. The wavelength of maximal UV absorption for compounds 2–14 could not be utilized in quantification because the diode array detector was saturated at the optimal wavelengths due to the high concentrations used in the well-plate reader assay. Therefore, off-optimal wavelengths were chosen for quantification separately for each compound 2–14 to reduce intensities and to obtain linear fits for calibration curves.
# All statistical analyzed were performed with R (version 4.2.2) in the integrated development environment Rstudio (version 2022.12.0.353).[23],[24] The PPC data was fitted with a dose–response model using the package drc.[25] Various models, e.g., logit and log-normal models, were compared using the mselect function, and the best fitting model was chosen based on the Akaike’s information criterion and residual error when comparing all models, and log-likelihood was used when comparing nested models. All compounds were assumed to have the same upper and lower asymptotes; the former was estimated from the experimental data, and the latter was fixed at zero.
# [2] = molecular target: T1, bovine serum albumin (BSA); experiment: UPLC–DAD analysis of supernatants from the PPC experiment (proportion of precipitated BSA); type: biochemical; conditions: highest tested concentration of 2.25 mM (molar ratio to BSA 23:1)
# Method: as §1
# [3] = Stability in phosphate buffered saline; type: physicochemical; conditions: phosphate buffered saline, pH 7.4, PBS pH 7.4, 0.01 M phosphate, 150 μM, first-order kinetics, UV 280 nm; read-out: half-life (t1/2)
# Method: The stabilities of the compounds were measured in PBS, which was prepared from commercially available tablets that were dissolved in ultrapure water. The phosphate concentration was 0.01 M, the pH was 7.4, and the potassium and sodium chloride concentrations were 0.0027 and 0.137 M, respectively. […] The compounds were dissolved in 2 mL of the PBS solution in Eppendorf tubes, vortexed for approximately 15 min, and filtered through a 0.2 μm PTFE filter to a 2 mL UPLC vial. The solutions were analyzed with the UPLC-DAD-HESI-Orbitrap-MS instrument using the longer phenyl column (section 2.4), and repeated injections were done every 47.5 min for approximately 12 h. […] The UV chromatograms at 280 nm were integrated using the QuanBrowser module in Xcalibur software (version 4.1.31.9), and the main degradation products were identified in QualBrowser by their high-resolution mass spectra and UV spectra. With each compound, the measured areas were transformed to proportional areas by dividing all areas with the initial area in the first injection of the time series, and the data was further loge transformed and fitted with first-order linear regression curves. The regression curves were supplemented with 95% confidence intervals to visualize the uncertainty in the fitted curves. The half-lives were calculated from the slope (k) parameters of the linear regression model using the following equation: [drawing 1]
# [4] = Octanol–water partition, shake-flask method; type: physicochemical; conditions: 200 μM, n-octanol/water, 2 h mixing, SE in parentheses
# Method: The shake-flask method was done using 2 mL Eppendorf tubes and three replicates. […] After mixing, aliquots of 500 μL were transferred to new Eppendorf tubes, and 500 μL of n-octanol was added that had been saturated with water. The solvent systems were mixed in a vortex mixer for 2 h, and then both the water and the n-octanol layers as well as the initial water solution were analyzed by UPLC–DAD using the shorter phenyl column (section 2.4). The chromatograms were integrated using TargetLynx software (version 4.2), and the octanol–water partition coefficient, log P, was calculated as the log10 of the ratio of area in n-octanol phase to the area in water phase. Recovery % was calculated by summing the areas in both phases and dividing the summation with the area measured from the initial water phase.
# T1 sequence (P02769 25-607): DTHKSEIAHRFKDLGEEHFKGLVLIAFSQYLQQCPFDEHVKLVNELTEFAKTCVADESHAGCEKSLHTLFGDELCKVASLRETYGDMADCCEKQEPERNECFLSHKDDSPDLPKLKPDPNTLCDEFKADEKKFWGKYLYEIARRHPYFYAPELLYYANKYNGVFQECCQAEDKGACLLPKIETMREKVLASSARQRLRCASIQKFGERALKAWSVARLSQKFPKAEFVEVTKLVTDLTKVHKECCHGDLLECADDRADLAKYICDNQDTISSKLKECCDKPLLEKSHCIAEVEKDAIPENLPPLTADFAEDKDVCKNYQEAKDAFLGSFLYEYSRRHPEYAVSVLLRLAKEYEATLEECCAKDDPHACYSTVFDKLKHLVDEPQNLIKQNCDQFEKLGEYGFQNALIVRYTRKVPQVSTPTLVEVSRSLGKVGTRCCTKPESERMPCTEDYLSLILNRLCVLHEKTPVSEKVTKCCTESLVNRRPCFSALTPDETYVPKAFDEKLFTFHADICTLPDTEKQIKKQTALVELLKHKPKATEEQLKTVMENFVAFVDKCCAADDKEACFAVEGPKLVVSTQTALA
smiles,measurement,setting,value
"O=C(O[C@@H]1Cc2c(O)cc(O)cc2O[C@@H]1c1cc(O)c(O)c(O)c1)c1cc(O)c(O)c(O)c1 [Compound 14, Epigallocatechin-3-gallate, reference compound]",ED90 (mM),[1]; BSA 0.1 mM,1.76 (0.06) mM
same,EC50,"[1]; concentration giving 50% of maximal absorbance (420 nm haze), BSA 0.1 mM, read-out: ED50 (the source's name)",890 µM
same,slope,[1]; slope parameter of log-normal dose–response model,1.88 (0.07)
same,proportion of BSA precipitated,[2],almost all
same,half-life at 150 μM,[3],1.4 h
same,KOW,[4],13.58 (0.06)
same,logP at 2 h,[4]; read-out: log P (log10KOW),1.13

# — paper PMC10722540, “Red Wine Inspired Chemistry: Hemisynthesis of Procyanidin Analogs and Determination of Their Protein Precipitation Capacity, Octanol–Water Partition, and Stability in Phosphate-Buffered Saline” (Journal of Agricultural and Food Chemistry, 2023)
